From article PMC11406516, “The Tuberculosis Drug Candidate SQ109 and Its Analogs Have Multistage Activity against Plasmodium falciparum” (ACS Infectious Diseases, 2024)
In brackets after ≈: the same amount, converted by molar mass. Read-outs that look alike come from different tables or passages of the source. Marks after values point to notes of the source that are not given here.

Assays:
[1] = tested on: PfDd2 parasites; assay: Asexual blood stage activity, chloroquine-resistant Dd2; assay type: cell-based; settings: Plasmodium falciparum, DD2, read-out: Pf ABS IC50 (Dd2)
From the text: This strain is highly resistant to chloroquine and other antimalarials and is associated with increased export of e.g., chloroquine from the digestive vacuole.[23] This phenotype was also replicated in PfDd2 parasites, also resistant to chloroquine (among other antimalarials), with 4 and 5 losing activity but 1 similarly active (Table 1). These aromatic compounds may therefore be subject to resistance mechanisms similar to those found with chloroquine.

[2] = tested on: PfNF54 LGc (stage IV/V gametocytes); assay: PrestoBlue late-stage gametocyte viability assay; assay type: cell-based, Plasmodium falciparum; settings: for IC50: Plasmodium falciparum, stage IV/V gametocytes, 48 h drug pressure, read-out: PfNF54 LGc IC50
Method: Gametocytogenesis was induced on highly synchronized (>95%) asexual ring-stage parasites from PfNF54 at 0.5% parasitemia and 6% hematocrit and thereafter maintained in glucose-deprived media as previously described.[29],[15] After 3 days, the hematocrit was decreased to 4%. Parasites were maintained in complete culture media supplemented with 50 mM N-acetyl-glucosamine 5–10 days post induction to inhibit proliferation of residual asexual blood stages. Gametocyte progression and morphology was also monitored microscopically using Giemsa-stained thin smears.
activity against the sexual stages of P. falciparum was evaluated using the PrestoBlue fluorescence assay as previously described.[4] Activity was measured on PfNF54 stage IV/V gametocytes (2% gametocytemia, 5% hematocrit) previously seeded with compounds (in non-lethal DMSO) for 48 h drug pressure, after which PrestoBlue reagent was added and incubated for 2 h. Fluorescence was detected in the supernatant at 612 nm. Dihydroartemisinin (DHA) was used as a positive drug control.

[3] = tested on: immature-stage gametocytes (IGc, stage II/III); assay: Immature-stage gametocyte activity; assay type: cell-based; settings: Plasmodium falciparum, 48 h drug pressure
Method: Figure 1 SQ109 is a gametocyte-targeting compound. (A) IC50 for parent compound SQ109/1 on asexual parasites (ABS), immature-stage gametocytes (IGc, stage II/III), or late-stage gametocytes (LGc, stage IV/V), under 48 h drug pressure. IC50 ABS: 1.58 ± 0.2 μM; IC50 IGc: 0.38 ± 0.10 μM; IC50 LGc: 0.14 ± 0.03 μM; ** P < 0.01 indicates IGc and LGc vs ABS. (B) Chemical structure and summary of the designed structure–activity relationships (SAR-1, SAR-2 and SAR-3) around SQ109/1. Data are from >2 independent biological repeats, mean ± SE indicated, unpaired Student’s t-test applied.

[4] = tested on: PfNF54 ABS; design: method as in Stampolaki et al.[5]; settings: drug-sensitive NF54; ref Stampolaki et al.[5]; read-out: Pf ABS IC50 NF54; cited from earlier work
[5] = tested on: male gametes (PfNF54); design: method as in Reader et al.[4]; settings: ref Reader et al.[4]; cited from earlier work
[6] = tested on: PfK1; assay: SYBR Green I proliferation assay, asexual blood stages, multidrug-resistant K1; settings: for IC50: Plasmodium falciparum, K1, read-out: Pf ABS IC50 K1; for fold higher IC50 against PfK1: PfK1 vs NF54
Method: (§3) P. falciparum asexual parasites were cultured from drug-sensitive NF54 (PfNF54) and multidrug resistant strains PfK1. Parasites were maintained in human erythrocytes (O+, suspended at 5% hematocrit) in RPMI-1640 culture medium (23.81 mM sodium bicarbonate, 0.024 mg/mL gentamycin, 25 mM HEPES pH 7.5, 0.2% D-glucose, 0.2 mM hypoxanthine and Albumax II) under hypoxic conditions (5% CO2, 5% O2 and 90% N2) with moderate shaking (60 rpm) at 37 °C. Cultures were synchronized to >95% in the ring stage with 5% (w/v) D-sorbitol treatment.[28]
(§4) Activity against the asexual stage of P. falciparum was evaluated using the SYBR Green I-based fluorescence assay as previously described.[4],[16] Cellular proliferation was measured on synchronized in vitro PfNF54 ring-stage parasites (1% parasitemia, 2% hematocrit), following drug pressure for 96 h. Chloroquine was used as the positive drug control for complete inhibition of parasite proliferation.

[7] = tested on: HepG2 cells; assay: HepG2 cytotoxicity, LDH release assay; settings: Homo sapiens, HepG2, 24 h, read-out: HepG2 EC50
Method: (§5) Furthermore, compounds were evaluated against late (stage IV/V) gametocytes from PfNF54 (PfNF54 LGc), with viability detected with PrestoBlue,[15] and orthogonally evaluated for toxicity against a human hepatocellular carcinoma line, HepG2.[16]
(§6) Human hepatocellular liver carcinoma cells (HepG2) were cultivated in vitro in Dulbecco’s Modified Eagle’s Medium (DMEM) supplemented with 10% (v/v) heat inactivated fetal bovine serum and 1% (v/v) penicillin/streptomycin.[14] Cells were detached with trypsin treatment at 80% confluency and were seeded in 96-well plates to adhere for 24 h under 5% CO2, humid (95%) conditions. Cells were subsequently exposed to drug pressure for 24 h and cytotoxicity was then determined using the lactate dehydrogenase (LDH) release assay through the colorimetric detection at 450 nm, as previously outlined.[4],[16]

[8] = tested on: female gametes; design: method as in Reader et al.[4]; settings: ref Reader et al.[4]; cited from earlier work
[9] = tested on: African field isolate SB05; assay: Ex vivo activity on clinical isolate SB05; assay type: cell-based, Plasmodium falciparum; settings: for IC50: Plasmodium falciparum, read-out: IC50 SB05
From the text: (§1) Since SB03/05 are both multiclonal,[27] this warrants further investigation into the activity of this series toward clinical gametocytes.
(§2) (A) Dose–response analysis of SQ109 on clinical isolates SB03 and SB05 in comparison to lab-adapted NF54 P. falciparum parasites. Data are from at least 2 independent biological repeats, mean ± SE indicated, * P < 0.05 is indicated. (B) IC50 for SQ109 analogs 13 and 19 against a contemporary African field isolate SB05. […] TEXT PRINTED IN THE PICTURE: (A) SQ109/1: IC50 (μM), NF54: 1.58 ± 0.20; IC50 (μM), SB03: 0.63 ± 0.01; IC50 (μM), SB05: 0.90 DOUBTS OF THE COPYIST ABOUT THIS PICTURE: Panel A: the three IC50 values are matched to NF54, SB03 and SB05 only by line style (black dashed, grey solid, grey dashed), not by a printed label beside the numbers.

[10] = in vitro; assay type: in vitro ADME; settings: microsomes
Method: The microsomal stability assay used a single-point assay design (Di et al., 2004). Briefly, the compounds were incubated at 1 μM in human, rat, and mouse liver microsomes (0.4 mg/mL) for 30 min at 37 °C. Reactions were quenched by adding ice-cold acetonitrile containing internal standard (carbamazepine, 0.0236 μg/mL). The samples were then centrifuged, and the samples were analyzed by liquid chromatography with tandem mass spectrometry (LC-MS/MS) (Agilent Rapid Resolution HPLC, AB SCIEX 4500 MS) for the disappearance of the parent compound. Half-life, clearance and hepatic […] ratios were determined using standard equations.

[11] = tested on: clinical isolate SB03; assay: Ex vivo activity on clinical isolate SB03; assay type: cell-based; settings: Plasmodium falciparum, read-out: IC50 SB03
From the text: as §1, §2

[12] = tested on: oocyst formation; settings: cited from earlier work
[13] = tested on: oocyst formation; assay: Standard membrane feeding assay (SMFA), oocyst formation in Anopheles coluzzii; assay type: in vivo; settings: Plasmodium falciparum, 48 h drug treatment at 2 μM, single biological repeat
Method: Transmission-blocking activity was confirmed in the standard membrane feeding assay (SMFA), by determining transmission-reducing activity (TRA; reduction in oocyst counts) and transmission-blocking activity (TBA, reduction in oocyst prevalence), 8–10 days after feeding female mosquitoes on gametocyte-infected blood, treated with selected compounds (at 2 μM).
SMFA was performed using glass feeders as is outlined.[4],[16] Once again, mature stage V gametocytes (>95%) were treated with 2 μM of each compound for 48 h prior to feeding. Anopheles coluzzii females were allowed to feed on gametocyte cultures (1.5–2.5% gametocytemia, 50% hematocrit in A+ male serum with fresh erythrocytes) in the dark for 40 min. All unfed or partially fed mosquitoes were removed, and remaining females housed for 8–10 days. Mosquitoes were dissected to remove midguts, and oocysts counted under bright field illumination at ×20–×40 magnification. The percentage of block in transmission (transmission-blocking activity; TBA) and the percentage of reduction in the number of oocysts (transmission-reducing activity; TRA) were calculated after normalizing to the control untreated sample.

[14] = physchem; assay type: physicochemical; settings: 37 °C, pH 6.5, aqueous buffer, thermodynamic from solid
Method: The stock solutions (10^–2 M) of the assayed compounds were diluted to decreased molarity, from 300 to 0.1 μM, in 384 well transparent plate (Greiner 781801) with 1% DMSO:99% PBS buffer. Then, they were incubated at 37 °C and the light scattering was measured after 2 h in a NEPHELOstar Plus (BMG LABTECH). The results were adjusted to a segmented regression to obtain the maximum concentration in which compounds are soluble.
The solubility of each product was evaluated using an HPLC Agilent 1100 with a DAD detector. The samples were injected in an Agilent Poroshell 120 EC-C18, 2.7 μm, 50 mm × 4.6 mm column at 40 °C and 0.6 mL/min flow. The mobile phase was a mixture of A = water with 0.05% formic acid and B = acetonitrile with 0.05% formic acid. The procedure followed was from 95% A–5% B to 100% B in 3 min, 100% B in 3 min, from 100% B to 95% A–5% B in 1 min, 95% A–5% B in 3 min; the injection volume was set at 75 μL. […] The samples remained at these conditions between 12–24 h. Then, the samples were filtered through a 0.45 μm PVDF filter and either directly analyzed or diluted before analyzing. The obtained area under the curve was compared with the one from the standard solution.

[15] = tested on: female gametes; assay: Female gamete inhibition assay; assay type: cell-based, Plasmodium falciparum; design: concentration or dose not given beside the values
Method: Similarly, female gametes were activated as described previously.[31] Monoclonal anti-Pfs antibody conjugated to FITC was used to detect female gametes. Image acquisition was performed using a Zeiss Axio Lab.A1 epifluorescence microscope with a 100/1.4 numerical aperture (NA) oil immersion. Thirty images were captured per sample and analyzed manually.

[16] = tested on: HepG2 cells; design: method as in Stampolaki et al.[5]; settings: compound at 20 μM; ref Stampolaki et al.[5]; cited from earlier work
[17] = tested on: male gametes (PfNF54); assay: Male gamete exflagellation inhibition assay (EIA); assay type: cell-based; settings: Plasmodium falciparum; 2 μM, 48 h; read-out: male gamete inhibition %
Method: The EIA was performed using video microscopy by capturing the movement of exflagellation centers over time as previously described.[4],[30] Mature PfNF54 stage V gametocytes (>95%;) were treated with 2 μM of drug for 48 h before the activation of exflagellation, without removing drug pressure. Movement was semi-automatically quantified from 15 videos of 8–10 s each between 15 and 22.5 min after incubation. Each video was analyzed using ICY-bio image analysis software.

[18] = tested on: PfNF54 ABS; assay: SYBR Green I proliferation assay, asexual blood stages, drug-sensitive NF54; settings: for IC50: Plasmodium falciparum, NF54, 96 h, read-out: Pf ABS IC50 NF54
Method: as §3, §4

[19] = tested on: HepG2 cells
Method: as §5, §6

[20] = 48 h drug treatment at 2 μM, ref Reader et al.[4]
[21] = read-out: oocyst formation (% inhibition) TBA
[22] = read-out: oocyst formation (% inhibition) TRA

CC(C)=CCC/C(C)=C/CNCCNC1C2CC3CC(C2)CC1C3 (stereo not drawn) [Compound 1, N-geranyl-N′-(2-adamantyl)ethane-1,2-diamine, reference compound]
IC50 [1]: 1440 nM | selectivity toward LGc compared to ABS ([2]; LGc IC50 vs ABS IC50): > 10 fold | IC50 [2]: 140 ± 30 nM | IC50 [3]: 380 nM | IC50 [4]: 1580 ± 200 nM | male gamete inhibition % [5]: 72.98 ± 5.97 ^c % | IC50 [6]: 3480 ± 240 nM | EC50 [7]: 9210 ± 1990 nM | female gamete inhibition % [8]: 51.74 ± 5.40 ^c % | IC50 [9]: 900 nM | shift in IC50, clinical isolates vs NF54 ([9]; contemporary African clinical isolates ex vivo): no significant shift | microsomal CLint at 1 µM ([10]; human): 442 µL/min/mg | microsomal CLint at 1 µM ([10]; mouse): 410 µL/min/mg | microsomal CLint at 1 µM ([10]; rat): 385 µL/min/mg | IC50 [11]: 630 ± 10 nM | oocyst formation (% inhibition) TBA [12, 20]: 36.0 ± 10.6 ^c % | oocyst formation (% inhibition) TRA [12, 20]: 76.0 ± 4.75 ^c % | transmission-reducing activity [12]: 80%

CC(C)=CCC/C(C)=C/CNCCNC1(Cc2ccccc2)C2CC3CC(C2)CC1C3 (stereo not drawn) [Compound 4]
IC50 [1]: 8110 nM | IC50 [2]: 160 ± 20 nM | IC50 [4]: 320 ± 30 nM | fold higher IC50 against PfK1 [6]: 16 × | IC50 [6]: > 5000 nM | inhibition at 2 µM [13, 21]: 26% | solubility [14]: 13.9 µM (≈ 5.85 µg/mL) | female gamete inhibition % [15]: 74.48 ± 2.26% | HepG2 % viability [16]: 100%^c | inhibition at 2 µM [17]: 43.9 ± 10.6%

CC(C)=CCC/C(C)=C/CNCCNC1(c2ccccc2)C2CC3CC(C2)CC1C3 (stereo not drawn) [Compound 5]
IC50 [1]: 5660 nM | IC50 [2]: 210 ± 20 nM | IC50 [4]: 420 ± 90 nM | fold higher IC50 against PfK1 [6]: 14 × | IC50 [6]: 5990 ± 630 nM | inhibition at 2 µM [13, 21]: 63% | inhibition at 2 µM [13, 22]: 38% | solubility [14]: 30 µM (≈ 12.2 µg/mL) | female gamete inhibition % [15]: 61.03 ± 14.35% | microsomal CLint at 1 µM ([10]; human): 400 µL/min/mg | microsomal CLint at 1 µM ([10]; mouse): 343 µL/min/mg | microsomal CLint at 1 µM ([10]; rat): 514 µL/min/mg | HepG2 % viability [16]: 100%^c | inhibition at 2 µM [17]: 48 ± 24.8%

CC(C)=CCC/C(C)=C/CNCCCNC1C2CC3CC(C2)CC1C3 (stereo not drawn) [Compound 13]
fold improvement in gametocyte activity compared to 1 ([2]; PfNF54 LGc): 1.2 fold | IC50 [2]: 120 ± 30 nM | IC50 [6]: 1050 ± 90 nM | inhibition at 2 µM [13, 21]: 64% | inhibition at 2 µM [13, 22]: 70% | EC50 [7]: 11800 ± 830 nM | IC50 [9]: 490 ± 90 nM | female gamete inhibition % [15]: 87.02 ± 3.68% | fold improvement in ABS activity compared to 1 ([18]; PfNF54 ABS): 1.6 fold | IC50 [18]: 980 ± 80 nM | inhibition at 2 µM [17]: 90.9 ± 9.09%

CC(C)CCCC(C)CCNCCNC1C2CC3CC(C2)CC1C3 (stereo not drawn) [Compound 19]
cytotoxicity to HepG2 cells (in words) [19]: moderately cytotoxic | IC50 [2]: 300 ± 30 nM | IC50 [6]: 110 ± 10 nM | inhibition at 2 µM [13, 21]: 36% | inhibition at 2 µM [13, 22]: 47% | EC50 [7]: 3500 ± 90 nM | IC50 [9]: 950 ± 310 nM | female gamete inhibition % [15]: 86.30 ± 2.58% | IC50 [18]: 200 nM | inhibition at 2 µM [17]: 95.5 ± 4.55%
